Where two headings read alike, the source gives them in different places.
How the values were obtained:
Norepinephrine = assay: Biological amine levels by HPLC-ECD after 45 min: norepinephrine; assay type: in vivo, mice
Procedure: (§1) Test Substances: […] Animals: Male Laca mice. Test Procedures: Animals were sacrificed after 45 min of drug administration similar to the time period of behavioral observations. HPLC-ECD detector: Mobile phase—Phosphate buffer: […] • Column—ODS-3 C-18 column (250×4.6 mm I.D.; 5 μm particle size)

5-hydroxytryptamine = assay: Biological amine levels by HPLC-ECD after 45 min: 5-hydroxytryptamine; assay type: in vivo, mice
Procedure: as §1

Dopamine = assay: Biological amine levels by HPLC-ECD after 45 min: dopamine; assay type: in vivo, mice
Procedure: as §1

[1] = Safety and tolerability of a single dose in healthy human subjects; assay type: in vivo; details: curcumin 1 gm single dose
From the text: The secondary aim of study was to monitor the safety and tolerability of a single dose of 1 g curcuminoids when administered in 12 healthy human subjects.

[2] = test system: monoamine oxidase enzymes; details: mice; cited from earlier work
mice = details: cited from earlier work
rats = details: 1.25, 2.5, 5 and 10 mg/kg P.O., chronic treatment 14 days; cited from earlier work
[3] = Comparative bioavailability study, curcumin in plasma by HPLC; assay type: in vivo, human
Procedure: The bioavailability study was conducted at Amala Cancer Institute, Thrissur, Kerala on a request from the applicant. Twelve healthy subjects were recruited for the purpose of the study. […] The study design chosen was a balanced, open label, two-treatment, two-period, single dose, bioavailability study.
12 Subject were recruited for the study and were asked to avoid consumption of food containing rich turmeric powder or extract for 24 hours preceding each period. […] The following supplements were used for the purpose of the study:
Each of the supplements were administered with 240 ml water in each period.
The study design is open label, two-treatment, two-period, single dose, bioavailability study. […] Subjects were asked to avoid consumption of food containing rich turmeric powder or extract for 24 hours preceding each period. […] There was a washout period of at least 2 weeks between the doses.
Blood was drawn from each subject just prior to dosing and at 1, 2, 4, 6, 8, and 24 hours post-dose. The total blood loss for each subject was approximately 70 ml and there were totally 14 blood samples of 5 ml each time point throughout the study.
The primary efficacy variables were measured in this study were Cmax, AUCO-t and AUCO-∞ and the secondary efficacy variable were as follows Tmax, T½ and Kel. The statistical evaluation was done by Winnonlin Software 5.0.1 version. […] Tmax and T½ were also be recorded and compared for the two products.
Preparation of Sample (Spiked with Standard Solution E): The frozen plasma samples were allowed to attain the room temperature. 1000 μl of the plasma sample was pipetted out and spiked with 100 μl of spiking standard solution E. This solution was vortex for 1 minute and 3.0 ml ethyl acetate (HPLC Grade) was added to the above solutions. The solution was vortex again for 1 minute with the aid of cyclomixer and allowed to settle down at room temperature.
1.5 ml of the upper ethyl acetate layer was pipetted out and evaporated to dryness using vacuum. The dried sample was dissolved in 600 μl of methanol (HPLC Grade) using vortex mixer. This solution was filtered by 0.2 micron membrane filter paper. 100 μl of these filtered solution was injected in HPLC (Waters Alliance System with 2996 PDA detector in isocratic mode). The column used was LiChrospher 100 RP-18 (250×4.6 mm 5 μM particle size) with methanol as the mobile phase and the detection wavelength was 420 nm. To identify and quantized curcuminoids in plasma the chromatographic peaks were compared with standard solution.

[4] = dose 100 mg/kg vs fluoxetine 10 mg/kg
[5] = dose 100 mg/kg, sacrificed after 45 min, n = 5

SMILES: COc1cc(C=CC(=O)CC(=O)C=Cc2ccc(O)c(OC)c2)ccc1O [Curcumin, 1,7-bis(4-hydroxy-3-methoxyphenyl)-1,6-heptadien-3,5-dione]
- Norepinephrine % increase w.r.t Control (Norepinephrine; dose 100 mg/kg): 67.90%
- Norepinephrine % increase w.r.t Fluoxetine (Norepinephrine; [4]): 19.18%
- Norepinephrine (ng/mg tissue) (Norepinephrine; [5]): 4.97 ± 0.33a ng/mg tissue
- 5-hydroxytryptamine % increase w.r.t Control (5-hydroxytryptamine; dose 100 mg/kg): 6.80%
- 5-hydroxytryptamine % increase w.r.t Fluoxetine (5-hydroxytryptamine; [4]): −21.77%
- 5-hydroxytryptamine (ng/mg tissue) (5-hydroxytryptamine; [5]): 4.24 ± 0.56 ng/mg tissue
- Dopamine % increase w.r.t Control (Dopamine; dose 100 mg/kg): −20.25%
- Dopamine % increase w.r.t Fluoxetine (Dopamine; [4]): −21.77%
- Dopamine (ng/mg tissue) (Dopamine; [5]): 4.33 ± 0.58 ng/mg tissue
- Tolerability ([1]; all subjects): well tolerated
- Adverse events ([1]; entire course of study): no adverse events reported
- Monoamine oxidase enzymes [2]: inhibited the monoamine oxidase enzymes
- Immobility period (mice): inhibited the immobility period
- Immobility time in the forced swim test (rats): reduced the immobility time
- AUCINF, Max ([3]; 1 gm curcuminoids oral): 87.74 ng·h/mL
- AUCINF, Min ([3]; 1 gm curcuminoids oral): 76.09 ng·h/mL
- AUCT, Max ([3]; 1 gm curcuminoids oral): 198.27 ng·h/mL
- AUCT, Min ([3]; 1 gm curcuminoids oral): 31.24 ng·h/mL
- Cmax, Max ([3]; 1 gm curcuminoids oral): 36.11 ng/mL
- Cmax, Min ([3]; 1 gm curcuminoids oral): 2.48 ng/mL
- Thalf, Geometric Mean ([3]; 1 gm curcuminoids oral): 7.066 h
- Thalf, Max ([3]; 1 gm curcuminoids oral): 11.39 h
- Thalf, Mean ([3]; 1 gm curcuminoids oral): 7.516 h
- Thalf, Median ([3]; 1 gm curcuminoids oral): 5.95 h
- Thalf, Min ([3]; 1 gm curcuminoids oral): 5.21 h
- Tmax, Max ([3]; 1 gm curcuminoids oral): 24.00 h
- Tmax, Min ([3]; 1 gm curcuminoids oral): 1.00 h
- AUCINF, Mean (mean AUC) ([3]; 1 gm curcuminoids oral, listed as Curcumin Extract Powder (min 95% Curcuminoids)): 80.433 ng·h/mL
- AUC(0-inf) ([3]; human, plasma, po, 1 gm, 1 gm curcuminoids oral, read-out: AUCINF, Geometric Mean): 80.3 ng·h/mL
- AUC(0-inf) ([3]; human, plasma, po, 1 gm, 1 gm curcuminoids oral, read-out: AUCINF, Mean (mean AUC)): 80.4 ng·h/mL
- AUC(0-inf) ([3]; human, plasma, po, 1 gm, 1 gm curcuminoids oral, read-out: AUCINF, Median): 77.5 ng·h/mL
- AUC(0-t) ([3]; human, plasma, po, 1 gm, 1 gm curcuminoids oral, read-out: AUCT, Geometric Mean): 81 ng·h/mL
- AUC(0-t) ([3]; human, plasma, po, 1 gm, 1 gm curcuminoids oral, read-out: AUCT, Mean): 98.8 ng·h/mL
- AUC(0-t) ([3]; human, plasma, po, 1 gm, 1 gm curcuminoids oral, read-out: AUCT, Median): 77.8 ng·h/mL
- Cmax ([3]; human, plasma, po, 1 gm, 1 gm curcuminoids oral, read-out: Cmax, Geometric Mean): 10.5 ng/mL
- Cmax ([3]; human, plasma, po, 1 gm, 1 gm curcuminoids oral, read-out: Cmax, Mean): 13.3 ng/mL
- Cmax ([3]; human, plasma, po, 1 gm, 1 gm curcuminoids oral, read-out: Cmax, Median): 10.3 ng/mL
- Tmax ([3]; human, plasma, po, 1 gm, 1 gm curcuminoids oral, read-out: Tmax, Geometric Mean): 4.06 h
- Tmax ([3]; human, plasma, po, 1 gm, 1 gm curcuminoids oral, read-out: Tmax, Mean): 8.25 h
- Tmax ([3]; human, plasma, po, 1 gm, 1 gm curcuminoids oral, read-out: Tmax, Median): 3 h
- AUC(0-inf) ([3]; human, plasma, po, 1 gm, individual subjects, 1 gm curcuminoids oral, read-out: AUCINF): 76.1 ng·h/mL
- concentration at 0 hr ([3]; human, plasma, po, 1 gm, time 0 hr (prior to dosing), 1 gm curcuminoids oral, read-out: Mean plasma concentration): 0 ng/mL
- concentration at 0 hr ([3]; human, plasma, po, 1 gm, time 0.00 hr (prior to dosing), individual subjects, single oral dose equivalent to 1 gm curcuminoids, read-out: Individual plasma concentration): 0 ng/mL
- concentration at 0 hr ([3]; human, plasma, po, 1 gm, time 0 hr, 1 gm curcuminoids oral, read-out: Geometric Mean plasma concentration): 0 ng/mL
- concentration at 0 hr ([3]; human, plasma, po, 1 gm, time 0 hr, 1 gm curcuminoids oral, read-out: Max plasma concentration): 0 ng/mL
- concentration at 0 hr ([3]; human, plasma, po, 1 gm, time 0 hr, 1 gm curcuminoids oral, read-out: Median plasma concentration): 0 ng/mL
- concentration at 0 hr ([3]; human, plasma, po, 1 gm, time 0 hr, 1 gm curcuminoids oral, read-out: Min plasma concentration): 0 ng/mL
- concentration at 1 hr ([3]; human, plasma, po, 1 gm, time 1 hr, 1 gm curcuminoids oral, read-out: Geometric Mean plasma concentration): 1.58 ng/mL

Reference: patent publication US9259401B2 (priority 2011, dated 2016)
